Target: T1, human S1P1 receptors (Homo sapiens, UniProt P21453)
T1 construct: host or cells: HEK293
Test: S1P1R antagonist assay (fluorescent membrane potential dye, cAMP readout)
Assay type: cell-based
Settings: HEK293 cells expressing human S1P1 receptors and CNG channel; 500 nM NECA; S1P1R agonist 10 nM; 90 minutes; read-out: EC50 or IC50 value

T1 sequence (P21453 whole entry): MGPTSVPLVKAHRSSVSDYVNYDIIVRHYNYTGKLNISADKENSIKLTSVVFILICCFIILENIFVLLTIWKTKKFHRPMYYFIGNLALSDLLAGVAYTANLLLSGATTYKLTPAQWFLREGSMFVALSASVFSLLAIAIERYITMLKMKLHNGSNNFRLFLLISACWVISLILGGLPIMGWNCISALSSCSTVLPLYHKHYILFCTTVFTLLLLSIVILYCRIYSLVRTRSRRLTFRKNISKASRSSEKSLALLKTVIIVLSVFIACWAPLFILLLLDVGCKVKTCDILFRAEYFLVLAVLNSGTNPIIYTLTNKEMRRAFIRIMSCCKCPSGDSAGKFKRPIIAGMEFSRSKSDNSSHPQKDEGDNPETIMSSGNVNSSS

IC50 [nM] | Compound
≤ 300 | O=C(Cc1cnc[nH]1)N[C@@H](CCCc1ccccc1)C(=O)Nc1ccc(Oc2ccc(F)cc2)cc1 [Compound 137, (S)-2-(2-(1H-imidazol-5-yl)acetamido)-5-phenyl-N-(4-(4-fluorophenoxy)phenyl)pentanamide]
≤ 300 | O=C(Cn1nccn1)N[C@@H](COCc1ccccc1)C(=O)Nc1ccc(Oc2ccc(F)cc2)cc1 [Compound 138, (S)-2-(2-(2H-1,2,3-triazol-2-yl)acetamido)-3-(benzyloxy)-N-(4-(4-fluorophenoxy)phenyl)propanamide]
≤ 300 | O=C(Cn1cncn1)N[C@@H](COCc1ccccc1OC(F)(F)F)C(=O)Nc1ccc(Oc2ccc(F)cc2)cc1 [Compound 139, (S)-2-(2-(1H-1,2,4-triazol-1-yl)acetamido)-N-(4-(4-fluorophenoxy)phenyl)-3-(2-(trifluoromethoxy)benzyloxy)propanamide]
≤ 300 | O=C(Nc1ccc(Oc2ccc(F)cc2)cc1)[C@@H]1C[C@@H](Cc2ccccc2)CN1C(=O)Cn1cncn1 [Compound 140, (2S,4R)-1-(2-(1H-1,2,4-triazol-1-yl)acetyl)-4-benzyl-N-(4-(4-fluorophenoxy)phenyl)pyrrolidine-2-carboxamide]
≤ 300 | O=C(Nc1ccc(Oc2ccc(F)cc2)cc1)[C@@H]1C[C@@H](Cc2ccc(F)cc2)CN1C(=O)Cn1cncn1 [Compound 141, (2S,4R)-1-(2-(1H-1,2,4-triazol-1-yl)acetyl)-4-(4-fluorobenzyl)-N-(4-(4-fluorophenoxy)phenyl)pyrrolidine-2-carboxamide]
≤ 300 | O=C(Cc1cnc[nH]1)NC(COCc1ccccc1)C(=O)Nc1ccc(Oc2ccccc2)cc1 (stereo not shown) [Compound 142, 2-(2-(1H-imidazol-5-yl)acetamido)-3-benzyloxy-N-(4-phenoxyphenyl)propanamide]
≤ 300 | O=C(Cc1cnc[nH]1)N[C@@H](COCc1ccccc1)C(=O)Nc1ccc(Oc2ccccc2)cc1 [Compound 143, (S)-2-(2-(1H-imidazol-5-yl)acetamido)-3-benzyloxy-N-(4-phenoxyphenyl)propanamide]
≤ 300 | O=C(Cn1cnnn1)N[C@@H](COCc1ccccc1)C(=O)Nc1ccc(Oc2ccccc2)cc1 [Compound 144, (S)-2-(2-(1H-tetrazol-1-yl)acetamido)-3-benzyloxy-N-(4-phenoxyphenyl)propanamide]
≤ 300 | O=C(Cc1cnc[nH]1)N[C@@H](COCc1ccccc1)C(=O)Nc1ccc(Oc2ccc(Cl)cc2)cc1 [Compound 145, (S)-2-(2-(1H-imidazol-5-yl)acetamido)-3-benzyloxy-N-(4-(4-chlorophenoxy)phenyl)propanamide]
≤ 300 | O=C(Cn1cncn1)N[C@@H](COCc1ccccc1)C(=O)Nc1ccc(Oc2ccccc2)cc1 [Compound 146, (S)-2-(2-(1H-1,2,4-triazol-1-yl)acetamido)-3-(benzyloxy)-N-(4-phenoxyphenyl)propanamide]
≤ 300 | O=C(Cc1cnc[nH]1)N[C@@H](COCc1ccccc1)C(=O)Nc1ccc(Oc2ccccc2)c(Cl)c1 [Compound 147, (S)-2-(2-(1H-imidazol-4-yl)acetamido)-3-(benzyloxy)-N-(3-chloro-4-phenoxyphenyl)propanamide]
≤ 300 | O=C(Cc1cnc[nH]1)N[C@@H](COCc1ccccc1)C(=O)Nc1ccc(Oc2cccc(Cl)c2)cc1 [Compound 148, (S)-2-(2-(1H-imidazol-4-yl)acetamido)-3-(benzyloxy)-N-(4-(3-chlorophenoxy)phenyl)propanamide]
≤ 300 | O=C(Cn1cncn1)N[C@@H](COCc1ccccc1)C(=O)Nc1ccc(Oc2ccc(F)cc2)cc1 [Compound 149, (S)-2-(2-(1H-1,2,4-triazol-1-yl)acetamido)-3-benzyloxy-N-(4-(4-fluorophenoxy)phenyl)propanamide]
≤ 300 | Cc1noc(C)c1CC(=O)N[C@@H](COCc1ccccc1)C(=O)Nc1ccc(Oc2ccc(F)cc2)cc1 [Compound 150, (S)-3-(benzyloxy)-2-(2-(3,5-dimethylisoxazol-4-yl)acetamido)-N-(4-(4-fluorophenoxy)phenyl)propanamide]
≤ 300 | O=C(Cn1nnc2ccccc21)N[C@@H](COCc1ccccc1)C(=O)Nc1ccc(Oc2ccc(F)cc2)cc1 [Compound 151, (S)-2-(2-(1H-benzo[d][1,2,3]triazol-1-yl)acetamido)-3-(benzyloxy)-N-(4-(4-fluorophenoxy)phenyl)propanamide]
≤ 300 | Cc1n[nH]c(C)c1CC(=O)N[C@@H](COCc1ccccc1)C(=O)Nc1ccc(Oc2ccc(F)cc2)cc1 [Compound 152, (S)-3-(benzyloxy)-2-(2-(3,5-dimethyl-1H-pyrazol-4-yl)acetamido)-N-(4-(4-fluorophenoxy)phenyl)propanamide]
≤ 300 | Cc1cn(CC(=O)N[C@@H](COCc2ccccc2)C(=O)Nc2ccc(Oc3ccc(F)cc3)cc2)nn1 [Compound 153, (S)-3-(benzyloxy)-N-(4-(4-fluorophenoxy)phenyl)-2-(2-(4-methyl-1H-1,2,3-triazol-1-yl)acetamido)propanamide]

IC50 [nM] | Compound
≤ 300 | O=C(Cc1cnc[nH]1)N[C@@H](COCc1ccccc1)C(=O)Nc1ccc(Oc2ccc(Cl)cc2)c(Cl)c1 [Compound 154, (S)-2-(2-(1H-imidazol-4-yl)acetamido)-3-(benzyloxy)-N-(3-chloro-4-(4-chlorophenoxy)phenyl)propanamide]
≤ 300 | O=C(CN1CCOCC1)N[C@@H](COCc1ccccc1)C(=O)Nc1ccc(Oc2ccc(F)cc2)cc1 [Compound 155, (S)-3-(benzyloxy)-N-(4-(4-fluorophenoxy)phenyl)-2-(2-morpholinoacetamido)propanamide]
≤ 300 | O=C(Cc1c[nH]cn1)N[C@@H](COCc1ccccc1)C(=O)Nc1ccc(Oc2ncc(Br)s2)cc1 [Compound 156, (S)-2-(2-(1H-imidazol-4-yl)acetamido)-3-(benzyloxy)-N-(4-(5-bromothiazol-2-yloxy)phenyl)propanamide]
≤ 300 | O=C(Cc1cnc[nH]1)N[C@@H](CCc1ccccc1)C(=O)Nc1ccc(Oc2ccc(Cl)cc2)cc1 [Compound 157, (S)-2-(2-(1H-imidazol-5-yl)acetamido)-N-(4-(4-chlorophenoxy)phenyl)-4-phenylbutanamide]
≤ 300 | Cc1ccc(Oc2ccc(NC(=O)[C@H](COCc3ccccc3)NC(=O)Cc3c[nH]cn3)cc2)cc1 [Compound 158, (S)-2-(2-(1H-imidazol-5-yl)acetamido)-3-(benzyloxy)-N-(4-(p-tolyloxy)phenyl)propanamide]
≤ 300 | O=C(Cc1cnccn1)N[C@@H](COCc1ccccc1)C(=O)Nc1ccc(Oc2ccc(F)cc2)cc1 [Compound 159, (S)-3-(benzyloxy)-N-(4-(4-fluorophenoxy)phenyl)-2-(2-(pyrazin-2-yl)acetamido)propanamide]
≤ 300 | Cc1nccn1CC(=O)N[C@@H](COCc1ccccc1)C(=O)Nc1ccc(Oc2ccc(F)cc2)cc1 [Compound 160, (S)-3-(benzyloxy)-N-(4-(4-fluorophenoxy)phenyl)-2-(2-(2-methyl-1H-imidazol-1-yl)acetamido)propanamide]
≤ 300 | CC(C)(C(=O)N[C@@H](COCc1ccc(F)cc1)C(=O)Nc1ccc(Oc2ccc(F)cc2)cc1)c1c[nH]cn1 [Compound 161, (S)-2-(2-(1H-imidazol-4-yl)-2-methylpropanamido)-3-(4-fluorobenzyloxy)-N-(4-(4-fluorophenoxy)phenyl)propanamide]
≤ 300 | Cc1nc(CC(=O)N[C@@H](COCc2ccccc2)C(=O)Nc2ccc(Oc3ccc(F)cc3)cc2)c[nH]1 [Compound 162, (S)-3-(benzyloxy)-N-(4-(4-fluorophenoxy)phenyl)-2-(2-(2-methyl-1H-imidazol-4-yl)acetamido)propanamide]
≤ 300 | CC(=O)N[C@@H](COCc1ccc(F)cc1)C(=O)Nc1ccc(Oc2ccc(F)cc2)cc1 [Compound 164, (S)-2-acetamido-3-(4-fluorobenzyloxy)-N-(4-(4-fluorophenoxy)phenyl)propanamide]
≤ 300 | O=C(Cn1cncn1)N[C@@H](CCCNC(=O)OCc1ccccc1)C(=O)Nc1ccc(Oc2ccc(F)cc2)cc1 [Compound 165, (S)-benzyl 4-(2-(1H-1,2,4-triazol-1-yl)acetamido)-5-(4-(4-fluorophenoxy)phenylamino)-5-oxopentylcarbamate]
≤ 300 | Cc1cc(CC(=O)N[C@@H](COCc2ccccc2)C(=O)Nc2ccc(Oc3ccc(F)cc3)cc2)[nH]n1 [Compound 166, (S)-3-(benzyloxy)-N-(4-(4-fluorophenoxy)phenyl)-2-(2-(3-methyl-1H-pyrazol-5-yl)acetamido)propanamide]
≤ 300 | CC(C(=O)N[C@@H](COCc1ccccc1)C(=O)Nc1ccc(Oc2ccc(F)cc2)cc1)c1c[nH]cn1 (stereo partly drawn) [Compound 167, (2S)-2-(2-(1H-imidazol-4-yl)propanamido)-3-(benzyloxy)-N-(4-(4-fluorophenoxy)phenyl)propanamide]
≤ 300 | O=C(Cc1c[nH]cn1)N[C@@H](COCc1ccc(F)cc1)C(=O)Nc1ccc(Oc2ccc(Br)cc2)cc1 [Compound 168, (S)-2-(2-(1H-imidazol-5-yl)acetamido)-N-(4-(4-bromophenoxy)phenyl)-3-(4-fluorobenzyloxy)propanamide]
≤ 300 | O=C(Nc1ccc(Oc2ccc(F)cc2)cc1)[C@@H]1C[C@@H](Cc2c(F)cc(F)cc2F)CN1C(=O)Cn1nccn1 [Compound 169, (2S,4R)-1-(2-(2H-1,2,3-triazol-2-yl)acetyl)-N-(4-(4-fluorophenoxy)phenyl)-4-(2,4,6-trifluorobenzyl)pyrrolidine-2-carboxamide]
≤ 300 | O=C(Nc1ccc(Oc2ccc(F)cc2)cc1)[C@@H]1C[C@@H](Cc2c(F)cc(F)cc2F)CN1C(=O)Cn1ccnn1 [Compound 170, (2S,4R)-1-(2-(1H-1,2,3-triazol-1-yl)acetyl)-N-(4-(4-fluorophenoxy)phenyl)-4-(2,4,6-trifluorobenzyl)pyrrolidine-2-carboxamide]
≤ 300 | Cc1cccc(C[C@@H]2C[C@@H](C(=O)Nc3ccc(Oc4ccc(F)cc4)cc3)N(C(=O)Cn3cncn3)C2)c1 [Compound 171, (2S,4R)-1-(2-(1H-1,2,4-triazol-1-yl)acetyl)-N-(4-(4-fluorophenoxy)phenyl)-4-(3-methylbenzyl)pyrrolidine-2-carboxamide]

From patent US8791102B2, “Acetanilide sphingosine-1-phosphate receptor antagonists” (Exelixis, Inc., priority 2008, dated 2014)
